The text below walks through data of patent US5705499A, “8-arylalkyl- and 8-arylheteroalkyl-5,11-dihydro-6H-dipyrido[3,2-B:2',3'-e][1]diazepines and their use in the treatment of HIV-1 infection” (Boehringer Ingelheim Pharmaceuticals, Inc., priority 1996, dated 1998).

One data set deals with T1, RT (Y181C) (Human immunodeficiency virus type 1 group M subtype B, UniProt P04585, Y768C).
T1 construct: Heterodimeric RT was eluted using a descending gradient; made in house; host or cells: E. coli
Type of data set: biochemical. The following applies: Y181C mutant HIV-1 RT. The text has this:
(§1) REVERSE TRANSCRIPT (RT) ASSAYS
(§2) Among the enzymes for which Human Immunodeficiency Virus (HIV-1) encodes is a reverse transcriptase (1), so-named because it transcribes a DNA copy from an RNA template. This activity can be quantitatively measured in a cell-free enzyme assay, which has been previously described (2), and is based upon the observation that reverse transcriptase is able to use a synthetic template [poly r(C) primed with oligo d(G)] to transcribe a radio-labelled, acid-precipitable DNA strand utilizing ^3 H-dGTP as a substrate. The assay described below utilizes the wild type (WT) enzyme, which is the predominant form of the enzyme observed in patients infected with HIV-1.
Purification of recombinant reverse transcriptase was performed using a combination of methods previously described (5). This procedure is summarized briefly as follows: Bacteria were pelleted E. Coli containing RT-1 wt or RT-1 (Y181 C) were suspended in 50 mM MES, pH 6.0 containing 10% glycerol, lysed in a french press, centrifuged, and the supernates discarded. […]
The 2.4× concentrated stock reaction mixture is aliquoted and stored at -20° C. […] The filters are then dried, placed into plastic bags with Betaplate scintillation cocktail (Pharmacia/LKB) and counted in the Betaplate counter (Pharmacia/LKB). […]

For data set [1], the target named is T2, RT (WT) (Human immunodeficiency virus type 1 group M subtype B, UniProt P04585). The following applies: same in vitro tests used for the compounds of the invention; cited from earlier work.
A further data set has as its system AIDS. The conditions noted are these: cited from earlier work.
In data set [2] the target is T2, RT (WT). Kind of data set: Reverse Transcriptase (RT) Assay, wild type. Type of data set: biochemical, HIV-1. On the set-up: Heterodimeric RT was eluted using a descending gradient; made in house; host or cells: E. coli (clone pKRT2, obtained from Yale University). The following applies: read-out: RT (WT) Assay % inh. (1 μM).
Text: as §1, §2
The HIV-1 RT expression clone, pKRT2, was obtained from Yale University (3). An overnight culture, grown in 2×YT medium (37° C., 225 rpm) (4), supplemented with 100 μg/mL ampicillin for positive selection was used to inoculate the 2×YT medium. The culture is incubated (37° C., 225 rpm) until it reaches an OD600 of 0.6-0.9. At that time the repressor inhibitor IPTG (isopropyl β-D-thiogalactopyranoside) is added to 0.5 mM, and the mixture is incubated for 2 additional hours.
Purification of recombinant reverse transcriptase was performed using a combination of methods previously described (5). This procedure is summarized briefly as follows: Bacteria were pelleted E. Coli containing RT-1 wt or RT-1 (Y181 C) were suspended in 50 mM MES, pH 6.0 containing 10% glycerol, lysed in a french press, centrifuged, and the supernates discarded. Lysate pellets were extracted with buffer A (50 mM MES, pH 6.0, 100 mM KCl, 50 mM KPi, 10% glycerol, 0.02% hexyl β-glucoside), and re-centrifuged; nucleic acid in supernates was precipitated with 0.1% polyethylenimine. […] Bound RT was eluted with a gradient of 0 to 1.0M (NH4)2 SO4 in buffer B. Heparin-Sepharose fractions containing RT were concentrated (Amicon YM-30 membrane), combined with equal volumes of 2.0M (NH4)2 SO4 in buffer B and injected onto a 21.5×150 mm TSK Phenyl-5PW HIC HPLC column (Phenomenex). Heterodimeric RT was eluted using a descending gradient of 1.0M to 0M (NH4)2 SO4 in buffer B, concentrated, and stored at 4° C.
The 2.4× concentrated stock reaction mixture is aliquoted and stored at -20° C. […] This enzyme assay has been adapted to a 96 well microtiter plate system, and has been previously described (6). Tris buffer (50 mM, pH 7.8), vehicle (solvent diluted to match the compound dilution), or compounds in vehicle are dispensed into 96-well microtiter plates (10 μL/well; 3 wells/compound). The HIV-1 RT enzyme is thawed, diluted in 50 mM Tris pH 7.8 containing 0.05% Chaps to give 1.5 nM enzyme and 25 μL are dispensed per well. Ten μL of 0.5M EDTA are added to the first three wells of the microtiter plate. EDTA chelates the Mg^++ present and prevents reverse transcription. This group serves as background polymerization which is subtracted from all other groups. Twenty-five μl of the 2.4× reaction mixture are added to all wells and the assay is allowed to incubate at room temperature for 30 minutes. The assay is terminated by precipitating the DNA in each well with 60μL of sodium pyrophosphate (2% w/v) in 10% trichloracetic acid (TCA) (10% w/v). The microtiter plate is incubated for 15 minutes at 4° C. and the precipitate is harvested onto #30 glass fiber paper (Schleicher & Schuell) using a Tomtech 96-well harvester. The filters are then dried, placed into plastic bags with Betaplate scintillation cocktail (Pharmacia/LKB) and counted in the Betaplate counter (Pharmacia/LKB).
The calculation for percent inhibition is as follows: [formula]

In a further data set the test system is C8166-45 cell line. In words: MTT Assay (cytotoxicity). The conditions noted are these: C8166-45 cells, five days. It is filed as cell-based, human.
Data set [3] deals with HTLV-IIIB strain of HIV-1 (in C8166-45 cells). In words: Syncytia (human T-cell culture) Assay. It is filed as cell-based. The conditions noted are these: Human immunodeficiency virus 1, T-cell; C8166-45 cells, HTLV-IIIB strain, 72 hours; read-out: Syncytia Assay IC50. Here is the method:
Formation of syncytia is a feature of in vitro cultures of CD4+ T-cells infected with HIV-1. In this assay (1), T-cells are treated with a putative replication inhibiting compound and then infected with HIV-1. After incubation, the culture is checked for the formation of syncytia. The absence or reduction in the number of syncytia is used as a measure of the test compound's ability to inhibit HIV replication.
The target cells, designated C8166-45, are a fusion of umbilical blood lymphocytes and T-cells from leukemia-lymphoma patients and are established at an initial density of 5×10^4 per 90 μl in RPMI 1640 (+10% fetal bovine serum) culture medium in 96 well flat bottom plates. A selected amount of test compound, dissolved in DMSO, is included. 50 TCID50 's (the dose that results in induced effect in 50% of test cultures) of the HTLV-IIIB strain of HIV-1 (3) are inoculated into each culture. Control cultures receive compound or virus only.
The cultures are incubated for 72 hours (4), at 37° C. with 5% carbon dioxide, and then visually examined for the frequency and distribution of virus-induced giant cell syncytia. The percent inhibition by the test compound is determined by comparison with control values.

For “2-Chloro-5,11-dihydro-11-ethyl-8-[2-(3-methylsulfonamidophenyl)ethyl]-6H-dipyrido[3,2-b:2',3'-e][1,4]diazepin-6-one [Example 25]”, on RT (Y181C), the “RT (Y181C) Assay % inh. (1 μM)” value is 70%.

“5,11-Dihydro-11-ethyl-5-methyl-8-phenylethynyl-6H-dipyrido[3,2-b:2',3'-e][1,4]diazepin-6-one [Example 48]”: the “RT (Y181C) Assay % inh. (1 μM)” value at RT (Y181C) was determined as 17%.

For `Cc1ccnc2c1NC(=O)c1cccnc1N2C1CC1` [11-cyclopropyl-5,11-dihydro-4-methyl-6H-dipyrido[3,2-b;2',3', -e][1,4]diazepine-6-one], at RT (WT) [1], the “active in the same in vitro tests” value was “active in the same in vitro tests”. Also, the “active in the treatment of AIDS in human tests” value in the data set on AIDS was “active in the treatment of AIDS in human tests”.

As to `CCN1c2ncc(/C=C/c3ccncc3)cc2C(=O)N(C)c2cccnc21` [Example 1, 5,11-Dihydro-11-ethyl-5-methyl-8-[trans-2-(pyrid-4-yl)ethen-1-yl]-6H H-dipyridol[3,2-b:2',3'-e][1,4]diazepin-6-one], the inhibition at 1 µM at RT (WT) [2] was 32%.

Turning to `CCN1c2ncc(CCc3ccncc3)cc2C(=O)N(C)c2cccnc21` [Example 2, 5,11-Dihydro-11-ethyl-5-methyl-8-[2-(pyrid-4-yl)ethyl]-6H-dipyrido[3,2-b:2',3'-e][1,4]diazepin-6-one], the “MTT Assay CC30” value with C8166-45 cell line was over 60000 nM. The inhibition at 1 µM at RT (WT) [2] turned out to be 95%. In data set [3], the half-maximal inhibitory concentration (IC50) stood at 20 nM.

`CCN1c2ncc(CCc3ccncc3)cc2C(=O)N(C)c2ccc(Cl)nc21` [Example 3, 2-Chloro-5,11-dihydro-11ethyl-5methyl-8-[2-(pyrid-4-yl)ethyl]-6H-dipyrido-[3,2-b:2',3'-e][1,4]diazepin-6-one]: the “MTT Assay CC30” value with C8166-45 cell line stood at 70000 nM. Also, the inhibition at 1 µM on RT (WT) [2] worked out at 95%. Moreover, in data set [3], the IC50 stood at 10 nM.

For `CCN1c2ncc(CCc3ccncc3)cc2C(=O)N(C)c2ccc(C#N)nc21` [Example 4, 2-Cyano-5,11-dihydro-11-ethyl-8-[2-(4-pyridyl)ethyl]-5-methyl-6H-dipyrido-[3,2-b:2',3'-e][1,4]diazepin-6-one], the inhibition at 1 µM at RT (WT) [2] worked out at 82%.

In the case of `CCN1c2ncc(CCc3ccncc3)cc2C(=O)N(C)c2ccc(N)nc21` [Example 5, 2-Amino-5,11-dihydro-11-ethyl-8-[2-(4-pyridil)ethyl]-5-methyl-6H -dipyrido[3,2-b:2',3'-e][1,4]diazepin-6-one], at RT (WT) [2], the inhibition at 1 µM amounted to 68%.

As to `CCN1c2ncc(CCc3ccncc3)cc2C(=O)N(C)c2ccc(O)nc21` [Example 6, 5,11-Dihydro-11-ethyl-2-hydroxy-8-[2-(4-pyridil)ethyl]5-methyl-6H-dipyrido[3,2-b:2',3'-e][1,4]diazepin-6-one], the “MTT Assay CC30” value in the data set with C8166-45 cell line is over 256000 nM. Also, at RT (WT) [2], the inhibition at 1 µM turned out to be 21%.

For `CCN1c2ncc(COc3ccncc3)cc2C(=O)N(C)c2ccc(Cl)nc21` [Example 124, 2-Chloro-5,11-dihydro-11-ethyl-5-methyl-8-(pyrid-4-yloxy)methyl-6H-dipyrido[3,2-b:2',3'-e][1,4]diazepin-6-one], in the data set on C8166-45 cell line, the “MTT Assay CC30” value was over 120000 nM. In addition, the IC50 in data set [3] was 6 nM.

Consider `CCN1c2ncc(CCOc3ccncc3)cc2C(=O)N(C)c2ccc(Cl)nc21` [Example 127, 2-chloro-5,11-dihydro-11-ethyl-5-methyl-8-[2-(pyrid-4-yloxy)ethyl]-6H-dipyrido[3,2-b:2',3'-e][1,4]diazepin-6-one], for which the “MTT Assay CC30” value with C8166-45 cell line turned out to be 55000 nM. Also, the IC50 in data set [3] came to 3 nM.

A word on the IC50: it is the concentration needed to halve the response being measured.
